The values below come from PMC9049205 (RSC Advances, 2020).

For experiment [1], the system named is influenza virus (A/PR/8/34 H1N1 strain). In words: organism not typed. Type of experiment: cell-based, Influenza A/PR/8/34 (H1N1). The following applies: for EC50: 48 h, read-out: Anti-influenza virus activity EC50.
The test system of a further experiment is influenza A virus. As to conditions: in vitro; cited from earlier work.
The subject of the next experiment is avian influenza A H5N1. The following applies: mouse, in vivo; cited from earlier work.

Read-outs that look alike come from different tables or passages of the source.

Usually EC50 stands for the concentration needed to bring the measured effect to its halfway point. Regarding `Cc1onc(-c2ccccc2)c1C(=O)N1CCC(c2ccc([N+](=O)[O-])cc2Cl)CC1` [Compound 1a, (4-(2-Chloro-4-nitrophenyl)piperidin-1-yl)(5-methyl-3-phenylisoxazol-4yl)methanone], in experiment [1], the “SI (selectivity index: CC50/EC50)” value is recorded as 22.02 and the “anti-influenza activity (in words)” value is recorded as “excellent activity than ribavirin”. The EC50 in experiment [1] (MDCK) is 0.898 ± 0.004 µM.

In the case of `COc1ccccc1-c1noc(C)c1C(=O)N1CCC(c2ccc([N+](=O)[O-])cc2Cl)CC1` [Compound 1b, (4-(2-Chloro-4-nitrophenyl)piperidin-1-yl)(3-(2-methoxyphenyl)-5-methylisoxazol-4-yl)methanone], in experiment [1], the “SI (selectivity index: CC50/EC50)” value is listed as 272.93 and the “anti-influenza activity (in words)” value is on record as “excellent activity than ribavirin”. Moreover, the EC50 in experiment [1] (MDCK) worked out at 0.253 ± 0.001 µM.

Consider `CSc1ccccc1-c1noc(C)c1C(=O)N1CCC(c2ccc([N+](=O)[O-])cc2Cl)CC1` [Compound 1c, (4-(2-Chloro-4-nitrophenyl)piperidin-1-yl)(5-methyl-3-(2-(methylthio)phenyl)isoxazol-4-yl)methanone], for which, in experiment [1], the “SI (selectivity index: CC50/EC50)” value was found to be 398.41 and the “anti-influenza activity (in words)” value was “excellent activity than ribavirin”. Further, the EC50 in experiment [1] (MDCK) came out at 0.502 ± 0.002 µM.

With `Cc1onc(-c2cccc(Cl)c2Cl)c1C(=O)N1CCC(c2ccc([N+](=O)[O-])cc2Cl)CC1` [Compound 1d, (4-(2-Chloro-4-nitrophenyl)piperidin-1-yl)(3-(2,3-dichlorophenyl)-5-methylisoxazol-4-yl)methanone], the “anti-influenza activity (in words)” value in experiment [1] is on record as “moderate activity”. Further, the EC50 in experiment [1] (MDCK) was determined as 21.572 ± 0.015 µM.

With `COc1nc2ccccc2cc1-c1noc(C)c1C(=O)N1CCC(c2ccc([N+](=O)[O-])cc2Cl)CC1` [Compound 1e, (4-(2-Chloro-4-nitrophenyl)piperidin-1-yl)(3-(2-methoxyquinolin-3-yl)-5-methylisoxazol-4-yl)methanone], in experiment [1], the “SI (selectivity index: CC50/EC50)” value came out at 2.52 and the “anti-influenza activity (in words)” value is reported as “moderate activity”. In experiment [1] (MDCK), the EC50 is 9.905 ± 0.01 µM.

Consider `COc1ccc(-c2noc(C)c2C(=O)N2CCC(c3ccc([N+](=O)[O-])cc3Cl)CC2)c(OC)c1` [Compound 1f, (4-(2-Chloro-4-nitrophenyl)piperidin-1-yl)(3-(2,4-dimethoxyphenyl)-5-methylisoxazol-4-yl)methanone], for which, in experiment [1], the “SI (selectivity index: CC50/EC50)” value is 13.68 and the “anti-influenza activity (in words)” value is given as “excellent activity than ribavirin”. In experiment [1] (MDCK), the EC50 worked out at 2.036 ± 0.009 µM.

For `Cc1onc(-c2ccccc2F)c1C(=O)N1CCC(c2ccc([N+](=O)[O-])cc2Cl)CC1` [Compound 1g, (4-(2-Chloro-4-nitrophenyl)piperidin-1-yl)(3-(2-fluorophenyl)-5-methylisoxazol-4-yl)methanone], in experiment [1], the “SI (selectivity index: CC50/EC50)” value was 12.27 and the “anti-influenza activity (in words)” value is reported as “excellent activity than ribavirin”. Moreover, in experiment [1] (MDCK), the EC50 stood at 1.356 ± 0.008 µM.

With `Cc1onc(-c2ccco2)c1C(=O)N1CCC(c2ccc([N+](=O)[O-])cc2Cl)CC1` [Compound 1h, (4-(2-Chloro-4-nitrophenyl)piperidin-1-yl)(3-(furan-2-yl)-5-methylisoxazol-4-yl)methanone], in experiment [1], the “anti-influenza activity (in words)” value was “moderate activity”. Also, the EC50 in experiment [1] (MDCK) is 16.226 ± 0.012 µM.

Consider `NC(=O)c1ncn([C@@H]2O[C@H](CO)[C@@H](O)[C@H]2O)n1` [Ribavirin, reference compound], for which, in experiment [1], the “SI (selectivity index: CC50/EC50)” value came to 6.37. Moreover, in experiment [1] (MDCK), the EC50 was found to be 9.891 ± 0.06 µM.

Turning to `Cc1onc(-c2ccccc2)c1C(=O)N1CCN(c2ccc([N+](=O)[O-])cc2Cl)CC1` [nucleozin, Nucleozin], the “median effective concentration (EC50), influenza A virus replication” value with influenza A virus is recorded as “nanomolar”. In addition, the “protection of mice challenged with lethal doses of avian influenza A H5N1” value with avian influenza A H5N1 is reported as “protected mice”.

On to “(4-(2-Chloro-4-nitrophenyl)piperidin-1-yl)(3-methyl-5-styrylisoxazol-4-yl)methanone [Compound 1i]”, for which, in experiment [1], the “anti-influenza activity (in words)” value is “moderate activity” and the EC50 was determined as 34.483 ± 0.014 µM.

As to “(5-Benzyl-3-methylisoxazol-4-yl)(4-(2-chloro-4-nitrophenyl) piperidin-1-yl)methanone [Compound 1j]”, in experiment [1], the “anti-influenza activity (in words)” value was “moderate activity” and the EC50 was determined as 19.41 ± 0.012 µM.
